Data: ChEMBL document CHEMBL5579900, “Enhanced Recognition Memory through Dual Modulation of Brain Carbonic Anhydrases and Cholinesterases” (J Med Chem, 2024)
The source made the active and inactive calls. No cut-off for these calls is given here.

Key:
[1] = biological target: Carbonic anhydrase 7 (Homo sapiens) (UniProt P43166)
Description: Binding affinity to human carbonic anhydrase 7 assessed as activation constant by phenol red dye based stopped-flow method

[2] = biological target: Carbonic anhydrase 2 (Homo sapiens) (UniProt P00918)
Description: Binding affinity to human carbonic anhydrase 2 assessed as activation constant by phenol red dye based stopped-flow method

[3] = biological target: Carbonic anhydrase 1 (Homo sapiens) (UniProt P00915)
Description: Binding affinity to human carbonic anhydrase 1 assessed as activation constant by phenol red dye based stopped-flow method

Mus musculus [4] = experiment: Improvement of social recognition memory in juvenile familiar male C57Bl6 mouse assessed as reduction in exploration time by measuring discrimination index at 0.5 nmol/uL, ICV administered post acquisition phase and measured after 48 hrs at retention test phase; assay type: functional, organism-based
Acetylcholinesterase = Acetylcholinesterase (Electrophorus electricus, UniProt O42275)
Description: Inhibition of electric eel AChE by microplate reader based analysis

[5] = biological target: Carbonic anhydrase 5B, mitochondrial (Homo sapiens) (UniProt Q9Y2D0)
Description: Binding affinity to human carbonic anhydrase 5B assessed as activation constant by phenol red dye based stopped-flow method

[6] = biological target: Carbonic anhydrase 4 (Homo sapiens) (UniProt P22748)
Description: Binding affinity to human carbonic anhydrase 4 assessed as activation constant by phenol red dye based stopped-flow method

Cholinesterase = Cholinesterase (Equus caballus, UniProt P81908)
Description: Inhibition of equine serum BuChE by microplate reader based analysis

Mus musculus [7] = experiment: Improvement of social recognition memory in juvenile unfamiliar male C57Bl6 mouse assessed as reduction in exploration time by measuring discrimination index at 0.5 nmol/uL, ICV administered post acquisition phase and measured after 48 hrs at retention test phase; assay type: functional, organism-based
Mus musculus [8] = experiment: Improvement of social recognition memory in juvenile unfamiliar male C57Bl6 mouse assessed as reduction in exploration time at 0.5 nmol/uL, ICV administered post acquisition phase and measured after 48 hrs at retention test phase; assay type: functional, organism-based
Mus musculus [9] = experiment: Improvement of social recognition memory in juvenile familiar male C57Bl6 mouse assessed as reduction in exploration time at 0.5 nmol/uL, ICV administered post acquisition phase and measured after 48 hrs at retention test phase; assay type: functional, organism-based
Mus musculus [10] = experiment: Improvement of social recognition memory in juvenile familiar male C57Bl6 mouse assessed as reduction in exploration time by measuring discrimination index at 0.1 nmol/uL, ICV administered post acquisition phase and measured after 48 hrs at retention test phase; assay type: functional, organism-based
Mus musculus [11] = experiment: Improvement of social recognition memory in juvenile familiar male C57Bl6 mouse assessed as reduction in exploration time at 0.1 nmol/uL, ICV administered post acquisition phase and measured after 48 hrs at retention test phase; assay type: functional, organism-based
Mus musculus [12] = experiment: Improvement of social recognition memory in juvenile unfamiliar male C57Bl6 mouse assessed as reduction in exploration time at 0.5 to 25 nmol/uL, ICV administered post acquisition phase and measured after 48 hrs at retention test phase; assay type: functional, organism-based; settings: dose 0.5-25 nmol/uL
Mus musculus [13] = experiment: Improvement of social recognition memory in juvenile unfamiliar male C57Bl6 mouse assessed as reduction in exploration time by measuring discrimination index at 0.1 nmol/uL, ICV administered post acquisition phase and measured after 48 hrs at retention test phase; assay type: functional, organism-based
Mus musculus [14] = experiment: Improvement of social recognition memory in juvenile unfamiliar male C57Bl6 mouse assessed as reduction in exploration time at 0.1 nmol/uL, ICV administered post acquisition phase and measured after 48 hrs at retention test phase; assay type: functional, organism-based
Mus musculus [15] = experiment: Improvement of social recognition memory in juvenile familiar male C57Bl6 mouse assessed as reduction in exploration time at 0.5 to 25 nmol/uL, ICV administered post acquisition phase and measured after 48 hrs at retention test phase; assay type: functional, organism-based; settings: dose 0.5-25 nmol/uL
Mus musculus [16] = experiment: Improvement of social recognition memory in juvenile unfamiliar male C57Bl6 mouse assessed as reduction in exploration time at 25 nmol/uL, ICV administered post acquisition phase and measured after 48 hrs at retention test phase in presence of tacrine; assay type: functional, organism-based
Mus musculus [17] = experiment: Improvement of social recognition memory in juvenile familiar male C57Bl6 mouse assessed as reduction in exploration time at 25 nmol/uL, ICV administered post acquisition phase and measured after 48 hrs at retention test phase in presence of tacrine; assay type: functional, organism-based
Mus musculus [18] = experiment: Improvement of social recognition memory in juvenile familiar male C57Bl6 mouse assessed as reduction in exploration time at 5 nmol/uL, ICV administered post acquisition phase and measured after 48 hrs at retention test phase in presence of tacrine; assay type: functional, organism-based
Mus musculus [19] = experiment: Improvement of social recognition memory in juvenile familiar male C57Bl6 mouse assessed as discrimination index at 50 nmol/uL, ICV administered post acquisition phase and measured after 48 hrs at retention test phase (reference value: -0.07+/-0.0124); assay type: functional
Mus musculus [20] = experiment: Improvement of social recognition memory in juvenile familiar male C57Bl6 mouse assessed as discrimination index at 25 nmol/uL, ICV administered post acquisition phase and measured after 48 hrs at retention test phase in presence of tacrine (reference value: -0.07+/-0.0124); assay type: functional
Mus musculus [21] = experiment: Improvement of social recognition memory in juvenile unfamiliar male C57Bl6 mouse assessed as reduction in exploration time at 5 nmol/uL, ICV administered post acquisition phase and measured after 48 hrs at retention test phase in presence of tacrine; assay type: functional, organism-based

Carbonic anhydrase 4 (Homo sapiens), sequence (P22748 whole entry): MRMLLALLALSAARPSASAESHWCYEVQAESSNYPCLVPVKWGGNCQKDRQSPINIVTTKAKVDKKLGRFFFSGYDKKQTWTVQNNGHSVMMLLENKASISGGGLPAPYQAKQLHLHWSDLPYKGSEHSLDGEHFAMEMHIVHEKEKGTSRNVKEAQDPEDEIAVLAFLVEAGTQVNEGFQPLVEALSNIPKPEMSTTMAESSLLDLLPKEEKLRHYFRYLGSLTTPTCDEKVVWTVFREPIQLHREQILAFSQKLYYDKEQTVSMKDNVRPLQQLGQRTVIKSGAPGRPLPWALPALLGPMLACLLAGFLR
Carbonic anhydrase 1 (Homo sapiens), sequence (P00915 2-261 limits assumed): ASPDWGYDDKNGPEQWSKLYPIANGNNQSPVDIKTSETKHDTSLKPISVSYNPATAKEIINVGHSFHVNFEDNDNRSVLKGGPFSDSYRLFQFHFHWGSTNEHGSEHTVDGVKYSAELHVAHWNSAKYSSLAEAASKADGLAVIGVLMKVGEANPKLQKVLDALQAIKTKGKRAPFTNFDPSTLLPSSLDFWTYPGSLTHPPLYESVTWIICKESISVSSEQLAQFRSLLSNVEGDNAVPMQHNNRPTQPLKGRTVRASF
Carbonic anhydrase 5B, mitochondrial (Homo sapiens), sequence (Q9Y2D0 whole entry): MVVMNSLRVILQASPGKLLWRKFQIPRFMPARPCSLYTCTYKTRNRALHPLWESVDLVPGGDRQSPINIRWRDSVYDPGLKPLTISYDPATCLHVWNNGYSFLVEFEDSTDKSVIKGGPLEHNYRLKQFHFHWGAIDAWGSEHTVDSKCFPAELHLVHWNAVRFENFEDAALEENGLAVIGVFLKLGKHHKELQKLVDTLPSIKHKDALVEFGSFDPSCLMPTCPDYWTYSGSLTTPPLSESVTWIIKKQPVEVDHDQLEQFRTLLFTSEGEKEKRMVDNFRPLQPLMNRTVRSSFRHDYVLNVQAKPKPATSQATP
Acetylcholinesterase, sequence (O42275 whole entry): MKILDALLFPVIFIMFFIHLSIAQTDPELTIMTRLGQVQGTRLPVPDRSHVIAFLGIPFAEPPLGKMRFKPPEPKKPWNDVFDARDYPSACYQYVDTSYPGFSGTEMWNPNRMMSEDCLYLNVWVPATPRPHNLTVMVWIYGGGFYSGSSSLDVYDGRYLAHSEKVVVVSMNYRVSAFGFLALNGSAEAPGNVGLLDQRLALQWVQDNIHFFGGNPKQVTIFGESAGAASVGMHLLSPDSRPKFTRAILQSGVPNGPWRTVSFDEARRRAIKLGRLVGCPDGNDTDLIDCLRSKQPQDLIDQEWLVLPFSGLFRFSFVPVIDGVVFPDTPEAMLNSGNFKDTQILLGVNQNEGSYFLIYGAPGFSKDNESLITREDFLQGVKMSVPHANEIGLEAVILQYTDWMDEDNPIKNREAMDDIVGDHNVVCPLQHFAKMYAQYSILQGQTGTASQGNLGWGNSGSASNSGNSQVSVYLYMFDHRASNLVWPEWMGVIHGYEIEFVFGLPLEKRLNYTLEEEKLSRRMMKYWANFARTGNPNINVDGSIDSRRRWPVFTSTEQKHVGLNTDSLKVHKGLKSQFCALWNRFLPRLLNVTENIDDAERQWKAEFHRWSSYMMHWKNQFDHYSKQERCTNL
Cholinesterase, sequence (P81908 whole entry): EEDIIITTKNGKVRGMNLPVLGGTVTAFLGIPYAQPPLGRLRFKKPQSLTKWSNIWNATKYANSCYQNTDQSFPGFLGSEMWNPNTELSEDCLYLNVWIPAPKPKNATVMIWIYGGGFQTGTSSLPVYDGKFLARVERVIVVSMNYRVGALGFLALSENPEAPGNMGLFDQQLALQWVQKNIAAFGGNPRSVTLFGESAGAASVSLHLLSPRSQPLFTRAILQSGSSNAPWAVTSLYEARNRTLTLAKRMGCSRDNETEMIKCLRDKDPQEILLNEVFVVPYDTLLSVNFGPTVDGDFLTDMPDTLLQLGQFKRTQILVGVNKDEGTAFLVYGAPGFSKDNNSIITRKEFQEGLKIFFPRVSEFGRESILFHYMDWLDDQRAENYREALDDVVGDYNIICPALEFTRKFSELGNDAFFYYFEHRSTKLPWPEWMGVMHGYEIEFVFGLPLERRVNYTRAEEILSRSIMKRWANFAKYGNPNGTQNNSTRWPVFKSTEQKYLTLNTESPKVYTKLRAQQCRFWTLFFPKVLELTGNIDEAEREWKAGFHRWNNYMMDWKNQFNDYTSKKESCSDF
Carbonic anhydrase 7 (Homo sapiens), sequence (P43166 whole entry): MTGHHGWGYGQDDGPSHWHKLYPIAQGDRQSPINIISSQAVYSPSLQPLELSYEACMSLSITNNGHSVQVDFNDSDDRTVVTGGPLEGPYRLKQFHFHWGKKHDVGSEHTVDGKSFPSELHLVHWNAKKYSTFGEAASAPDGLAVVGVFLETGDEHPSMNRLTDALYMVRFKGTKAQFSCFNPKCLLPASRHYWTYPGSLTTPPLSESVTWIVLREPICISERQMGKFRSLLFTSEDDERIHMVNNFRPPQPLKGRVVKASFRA

| Compound | KA ([1]; filed as activator) [nM] | KA ([2]; filed as activator) [nM] | KA ([3]; filed as activator) [nM] | IC50 (Acetylcholinesterase) [nM] | KA ([5]; filed as activator) [nM] | KA ([6]; filed as activator) [µM] | IC50 (Cholinesterase) [nM] | KA [5] [nM] | KA [1] [nM] | KA [3] [nM] | KA [6] [µM] | further results |
| --- | --- | --- | --- | --- | --- | --- | --- | --- | --- | --- | --- | --- |
| N[C@@H](CCCCNC(=O)OCc1ccccc1)C(=O)NCCCNc1c2c(nc3ccccc13)CCCC2 | 3080 | 1200 | 2080 | 110 | 4950 | 8.52 | 0.3 |  |  |  |  | Activity (Mus musculus [4]): inactive; Activity (Mus musculus [7]): inactive; Activity (Mus musculus [8]): inactive; Activity (Mus musculus [9]): inactive |
| N[C@@H](Cc1ccccc1)C(=O)NCCCCCNc1c2c(nc3ccccc13)CCCC2 | 192 | 93.4 | 782 | 7.4 | 1320 | 2.61 | 1.9 |  |  |  |  | Activity (Mus musculus [10]): inactive; Activity (Mus musculus [11]): inactive; Activity (Mus musculus [12]): Active; Activity (Mus musculus [13]): inactive; Activity (Mus musculus [14]): inactive; Activity (Mus musculus [15]): Active |
| N[C@H](Cc1ccccc1)C(=O)O [D-PHENYLALANINE] |  |  |  |  |  |  |  |  |  |  |  | Activity (Mus musculus [16]): Active; Activity (Mus musculus [17]): Active; Activity (Mus musculus [18]): inactive; Activity_index (Mus musculus [19]): 0.373; Activity_index (Mus musculus [20]): 0.205; Activity (Mus musculus [21]): inactive |
| CC(C)(C)OC(=O)N[C@@H](Cc1c[nH]c2ccccc12)C(=O)NCCCNc1c2c(nc3ccccc13)CCCC2 | 1920 | 5180 | 1920 | 426 |  | 21.7 | 0.5 | > 50000 |  |  |  |  |
| COC(=O)[C@H](Cc1ccccc1)NCCCCCCNc1c2c(nc3ccccc13)CCCC2 | 397 | 312 | 992 | 21.8 | 5170 | 1.45 | 0.21 |  |  |  |  |  |
| CC(C)(C)OC(=O)N[C@@H](CCCCNC(=O)OCc1ccccc1)C(=O)NCCCCCNc1c2c(nc3ccccc13)CCCC2 |  |  |  | 299 |  |  | 0.34 | > 50000 | > 50000 | > 50000 | > 50 | KA [2]: > 50000 nM |
| CC(C)(C)OC(=O)N[C@@H](CCCCNC(=O)OCc1ccccc1)C(=O)NCCCNc1c2c(nc3ccccc13)CCCC2 |  |  |  | 419 |  |  | 0.25 | > 50000 | > 50000 | > 50000 | > 50 | KA [2]: > 50000 nM |
| N[C@@H](Cc1c[nH]cn1)C(=O)NCCCNc1c2c(nc3ccccc13)CCCC2 | 281 | 376 | 581 | 119 | 1860 | 0.619 | 5.8 |  |  |  |  |  |
| c1ccc2c(NCCCCCCNCCc3c[nH]cn3)c3c(nc2c1)CCCC3 | 386 | 102 | 236 | 2.2 | 500 | 2.28 | 2 |  |  |  |  |  |
| COC(=O)[C@H](Cc1c[nH]cn1)NCCCCCNc1c2c(nc3ccccc13)CCCC2 | 211 | 175 | 311 | 143 | 2430 | 3.65 | 4.4 |  |  |  |  |  |
| CC(C)(C)OC(=O)N[C@@H](Cc1cn(C(=O)OC(C)(C)C)cn1)C(=O)NCCCCCCNc1c2c(nc3ccccc13)CCCC2 |  | 10000 |  | 14.5 |  |  | 0.44 | > 50000 | > 50000 | > 50000 | > 50 |  |
| COC(=O)[C@H](Cc1c[nH]cn1)NCCCCCCNc1c2c(nc3ccccc13)CCCC2 | 98 | 76.9 | 266 | 72.1 | 893 | 0.918 | 4.2 |  |  |  |  | Activity (Mus musculus [10]): inactive; Activity (Mus musculus [11]): inactive; Activity (Mus musculus [12]): Active; Activity (Mus musculus [13]): inactive; Activity (Mus musculus [14]): inactive; Activity (Mus musculus [15]): Active |
| COC(=O)[C@H](Cc1c[nH]c2ccccc12)NCCCCCNc1c2c(nc3ccccc13)CCCC2 | 482 | 840 | 606 | 37.6 | 471 | 2.93 | 4 |  |  |  |  |  |
| CC(C)(C)OC(=O)N[C@@H](Cc1ccccc1)C(=O)NCCCCCNc1c2c(nc3ccccc13)CCCC2 |  |  |  | 243 |  |  | 0.34 | > 50000 | > 50000 | > 50000 | > 50 | KA [2]: > 50000 nM |
| CC(C)(C)OC(=O)N[C@@H](Cc1ccccc1)C(=O)NCCCNc1c2c(nc3ccccc13)CCCC2 |  |  |  | 202 |  |  | 0.16 | > 50000 | > 50000 | > 50000 | > 50 | KA [2]: > 50000 nM |
| CC(C)(C)OC(=O)N[C@@H](Cc1cn(C(=O)OC(C)(C)C)cn1)C(=O)NCCCNc1c2c(nc3ccccc13)CCCC2 |  | 15900 |  | 157 |  |  | 3.6 | > 50000 | > 50000 | > 50000 | > 50 |  |
| N[C@@H](Cc1ccccc1)C(=O)NCCCNc1c2c(nc3ccccc13)CCCC2 | 491 | 726 | 893 | 239 | 971 | 5.85 | 0.22 |  |  |  |  |  |
| N[C@@H](Cc1c[nH]cn1)C(=O)NCCCCCNc1c2c(nc3ccccc13)CCCC2 | 96.4 | 65.1 | 565 | 29.8 | 1010 | 0.757 | 6.8 |  |  |  |  | Activity (Mus musculus [10]): inactive; Activity (Mus musculus [11]): inactive; Activity (Mus musculus [12]): Active; Activity (Mus musculus [13]): inactive; Activity (Mus musculus [14]): inactive; Activity (Mus musculus [15]): Active |
